Literature values in US11504321B2, “Process of coloring keratinous material comprising the use of an organosilicon compound, an effect pigment, a further coloring compound and a film-forming polymer II” (Henkel AG & Co. KGaA, priority 2019, dated 2022).

Conditions: for solubility in water: 25° C.

Compound	solubility in water	solubility in water (in words) (at 25° C.)
CCN(Cc1cccc(S(=O)(=O)[O-])c1)c1ccc(C(=C2C=CC(=[N+](CC)Cc3cccc(S(=O)(=O)[O-])c3)C=C2)c2ccccc2S(=O)(=O)[O-])cc1.[Na+].[Na+] [Acid Blue 9]	more than 20 % by weight	–
O=S(=O)([O-])c1ccc(N=Nc2c(O)ccc3ccccc23)cc1.[Na+] [Acid Orange 7, sodium salt of 4-[(2-hydroxy-1-naphthyl)azo]benzene sulphonate]	more than 7 g/L	–
Nc1cc(S(=O)(=O)[O-])cc2cc(S(=O)(=O)[O-])c(N=Nc3ccccc3)c(O)c12.[Na+].[Na+] [Acid Red 33, disodium salt of 5-amino-4-hydroxy-3-(phenylazo)-naphthalene-2,7-disulphonate]	2500 µg/mL	–
O=C([O-])c1c(Cl)c(Cl)c(Cl)c(Cl)c1-c1c2c(Br)cc(=O)c(Br)c-2oc2c(Br)c(O)cc(Br)c12.O=C([O-])c1c(Cl)c(Cl)c(Cl)c(Cl)c1-c1c2c(Br)cc(=O)c(Br)c-2oc2c(Br)c(O)cc(Br)c12.[Na+].[Na+] [Acid Red 92, disodium salt of 3,4,5,6-tetrachloro-2-(1,4,5,8-tetrabromo-6-hydroxy-3-oxoxanthen-9-yl)benzoic acid]	greater than 10 g/L	–
O=C([O-])C1=NN(c2ccc(S(=O)(=O)[O-])cc2)C(=O)C1N=Nc1ccc(S(=O)(=O)[O-])cc1.[Na+].[Na+].[Na+] (centres unmarked) [Acid Yellow 23, trisodium salt of 4,5-dihydro-5-oxo-1-(4-sulfophenyl)-4-((4-sulfophenyl)azo)-1H-pyrazole-3-carboxylic acid]	–	highly soluble in water
